One block for each compound: values may come before it.
Assays:
[1] = system: bean seedlings; assay: Phytotoxicity (percentage of leaf necrosis) on bean seedlings; format: in vivo; conditions: scale 0-100
Method: (§1) Bean plants cv. Borlotto of Vigevano, grown in pots in a conditioned environment, were treated by spraying both sides with the products under examination in a hydroacetonic solution with 20% by volume of acetone (vol./vol.).
At the same time, an evaluation of the phytotoxicity was effected (percentage of leaf necrosis) induced on the bean seedlings by the application of the products: in this case the evaluation scale ranges from 0 (completely healthy plant) to 100 (completely necrotic plant).

[2] = system: Uromyces Appendiculatus; assay: Preventive fungicidal activity (5 days) against Uromyces Appendiculatus on beans; format: in vivo
Method: Determination of the preventive fungicidal activity (5 days) against Uromyces Appendiculatus on beans.
as §1
After remaining 5 days in a conditioned environment at 23° C. and 70% of relative humidity, the plants were sprayed on the lower side with an aqueous suspension of spores of Uromyces Appendiculatus (200,000 spores/cc); after remaining 24 hours in a humidity-saturated environment, they were re-transferred to the conditioned environment.
After this period, the external symptoms of the pathogen appeared and it was therefore possible to proceed with the visual evaluation of the intensity of the infection.
(§2) The fungicidal activity is expressed as a percentage of the reduction, with respect to non-treated seedlings (comparison), in the area of the leaf affected by the disease (100=full effectiveness; 0=zero effectiveness).

[3] = system: cucumber seedlings; assay: Phytotoxicity (percentage of leaf necrosis) on cucumber seedlings; format: in vivo; conditions: scale 0-100
Method: (§3) Cucumber plants cv. Lungo of China, grown in pots in a conditioned environment were treated by spraying both sides with the products under examination in a hydroacetonic solution with 20% by volume of acetone (vol./vol.).
At the same time, an evaluation of the phytotoxicity was effected (percentage of leaf necrosis) induced on the cucumber seedlings by the application of the products: in this case the evaluation scale ranges from 0 (completely healthy plant) to 100 (completely necrotic plant).

[4] = system: Sphaerotheca Fuliginea; assay: Preventive fungicidal activity (7 days) against Sphaerotheca Fuliginea on cucumbers; format: in vivo
Method: Determination of the preventive fungicidal activity (7 days) against Sphaerotheca Fuliginea on cucumbers.
as §3
7 days after the treatment, the plants were sprayed on the upper side with an aqueous suspension of spores of Sphaerotheca Fuliginea (200,000 spores/cc); they were then re-transferred to the conditioned environment.
At the end of the period of incubation (8 days), the evaluation of the intensity of the infection was finally effected.
as §2

[5] = system: wheat seedlings; assay: Phytotoxicity (percentage of leaf necrosis) on wheat seedlings; format: in vivo; conditions: for Phytotoxicity % N.F. (leaf necrosis): wheat seedlings, scale 0-100
Method: (§4) Leaves of wheat plants of the Salgemma variety, grown in pots in a conditioned environment at 20° C. and 70% of Relative Humidity (RH) were treated by spraying both sides of the leaves with the compound under examination (see Table 4 hereunder) dispersed in a hydroacetonic solution at 20% by volume of acetone.
At the same time, an evaluation of the phytotoxicity was effected (percentage of leaf necrosis) induced on the wheat seedlings by the application of the products: in this case the evaluation scale ranges from 0 (completely healthy plant) to 100 (completely necrotic plant).

[6] = system: Puccinia Recondita; assay: Preventive fungicidal activity (5 days) against Puccinia Recondita on wheat; format: in vivo; conditions: wheat; for Activity P5 NT (reduction of leaf area affected, parts developed during the test): non-treated parts (NT)
Method: Determination of the preventive fungicidal activity (5 days) against Puccinia Recondita on wheat.
as §4
After remaining 5 days in a conditioned environment, the plants were sprayed on both sides of the leaves with an aqueous suspension of conidia of Puccinia Recondita (2 mg of inoculum per 1 ml of solution for infection).
After spraying, the plants were kept in a humidity-saturated environment at a temperature ranging from 18 to 24° C. for the incubation period of the fungus (1 day).
At the end of this period, the plants were put in a greenhouse with a relative humidity (RH) of 70% and at a temperature of 18-24° C. for 14 days.
At the end of this period, the external symptoms of the pathogen appeared and it was therefore possible to proceed with the visual evaluation of the intensity of the infection, both on the parts treated directly with the products (T) and on the parts developed during the implementation of the test (NT).
as §2

[7] = Accelerated stability test of 5% solutions in commercial solvents (54° C., 2 weeks, HPLC); format: physicochemical
Method: Stability tests of the compositions containing compounds having formula (I) in a solvent
In order to evaluate the chemical stability of the compounds having Formula (I) in a solvent, 5% solutions were prepared, containing 250 mg of compounds Nr. 1, 17, 39 and 40, dissolved in 4.75 g of various commercial solvents used for the preparation of emulsifiable concentrates.
The resulting solutions were put in an oven at 54° C. for 2 weeks (according to Cipac MT 46.1 update 2012) and then analyzed by means of HPLC in order to verify the concentration of the active ingredient contained therein. The percentage of degradation of the compound having Formula (I) was therefore obtained, after the accelerated stability test.

[8] = system: Helmintosporium teres; assay: Preventive fungicidal activity (7 days) against Helmintosporium teres on barley; format: in vivo; conditions: for Activity P7: 125 ppm, scale 0 (completely infected plant) to 100 (healthy plant)
Method: Determination of the preventive fungicidal activity (7 days) against Helmintosporium teres on barley. […] After remaining 7 days in a conditioned environment, the plants were sprayed on both sides of the leaves with an aqueous suspension of conidia of Helmintosporium teres (50,000 conidia/cc+Tween 20-1 drop/100 ml). The plants were then kept in a controlled environment during the incubation period of the fungus (wet room 1 day for infection, 3 days in a cell with 70% of R.H. and at a temperature of […] for the incubation period, 3 days for completion in a wet room, biological cycle 12 days). At the end of this period (12 days), the fungicidal activity was evaluated according to an evaluation percentage scale from 0 (completely infected plant) to 100 (healthy plant).

[9] = system: Parastagonospora nodorum; assay: Preventive activity (7 days) against Parastagonospora nodorum on wheat; format: in vivo; conditions: 250 ppm
Method: Determination of the preventive activity (7 days) of the compounds having formula (I) against Parastagonospora nodorum on wheat. […] After remaining 48 hours in a humidity-saturated environment, at 21° C., the plants were transferred for the incubation period (10-12 days) to a conditioned environment at 70% of R.H. and at a temperature of 24° C. At the end of this period, the external symptoms of the pathogen appeared and it was therefore possible to proceed with the visual evaluation of the intensity of the infection. The fungicidal activity was expressed as a percentage of the reduction, with respect to non-treated seedlings (comparison), in the area of the leaf affected by the disease (100=full effectiveness; 0=zero effectiveness). Table 7 indicates the results obtained by carrying out the test described with compound Nr. 12, compared with a compound described in WO2008/101682: […]

percentage of degradation ([7]; solvent ADMA 10 (N,N-dimethyldecanamide)): 1.07%
percentage of degradation ([7]; solvent Alkamuls T/20 (ethoxylated sorbitan monolaurate)): 58.61%
percentage of degradation ([7]; solvent CME (rapeseed methyl ester)): 10.79%
percentage of degradation ([7]; solvent FMPC (N-formylmorpholine and propylene carbonate)): 1.46%
percentage of degradation ([7]; solvent Green 25 (dimethylsulfoxide, acetophenone, 2-ethylhexyl acetate)): 2.07%
percentage of degradation ([7]; solvent Propylene carbonate): 3%
percentage of degradation ([7]; solvent Purasolv BL (butyl lactate)): 100%
percentage of degradation ([7]; solvent RPDE (dimethyl glutarate, dimethyl succinate, dimethyl adipate)): 0.78%
Compound: CCN(C)C=Nc1cc(Br)c(SCc2cccc(C(F)(F)F)c2)nc1C [Compound 1, N-ethyl-N-methyl-N′-5bromo-2-methyl-6-{[3-(trifluoromethyl)benzyl]thio}pyridyl-3-formamidine]
Phytotoxicity % N.F. (leaf necrosis) ([1]; 30 ppm): 0 % N.F.
Phytotoxicity % N.F. (leaf necrosis) ([1]; 125 ppm): 0 % N.F.
Activity P5 ([2]; 30 ppm): 90%
Activity P5 ([2]; 125 ppm): 100%
Phytotoxicity % N.F. (leaf necrosis) ([3]; 30 ppm): 0 % N.F.
Phytotoxicity % N.F. (leaf necrosis) ([3]; 125 ppm): 0 % N.F.
Activity P5 ([4]; 30 ppm): 90%
Activity P5 ([4]; 125 ppm): 100%
Phytotoxicity % N.F. (leaf necrosis) ([5]; 125 ppm): 0 % N.F.
Phytotoxicity % N.F. (leaf necrosis) ([5]; 250 ppm): 0 % N.F.
symptoms of phytotoxicity on the plant (in words) ([5]; wheat, summary of Table 4): do not show any symptoms of phytotoxicity
Activity P5 NT (reduction of leaf area affected, parts developed during the test) ([6]; 125 ppm): 75%
Activity P5 T (reduction of leaf area affected, parts treated directly) ([6]; 125 ppm): 98%
Activity P5 NT (reduction of leaf area affected, parts developed during the test) ([6]; 250 ppm): 85%
Activity P5 T (reduction of leaf area affected, parts treated directly) ([6]; 250 ppm): 100%
effectiveness in containing the disease (in words) ([6]; summary of Table 4): effective in containing the disease

Compound: CCN(C)C=Nc1cc(Br)c(Sc2ccc(Cl)c(C(F)(F)F)c2)nc1C [Compound 8]
effectiveness on Helmintosporium teres (in words) [8]: higher effectiveness with respect to the reference compound CR4
Activity P7 [8]: 30%

Compound: N-ethyl-N-methyl-N′-[5-bromo-2-methyl-6-[(1-methyl -2-propoxyethoxy]pyridyl-3-formamidine [CR3]
Activity P7 [9]: 57%

Compound: N-ethyl-N-methyl-N′-[5-bromo-2-methyl-6-[(4-chloro-3-trifluoromethyl]phenoxy]pyridyl-3-formamidine [CR4, reference compound]
effectiveness on Helmintosporium teres (in words) [8]: completely inactive
Activity P7 [8]: 0%

Reference: patent US20210100246A1, “PYRIDYL-FORMAMIDINES HAVING A FUNGICIDAL ACTIVITY, THEIR AGRONOMIC COMPOSITIONS AND USE THEREOF” (ISAGRO, S.p.A., priority 2017, published 2021)
